# According to the supplement of paper PMC10883282:
# Counter-ions that a name gives are not always drawn. ± gives the standard deviation of the averaged measurements.
# Test system: KHOS-NP
# Test: relative viability vs DMSO control (72 h) (fraction); higher = more viable cells
# Procedure, shortened: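 Serially diluted compound, 2.5 µl from source plates spanning 10 mM to 0.0002 mM, was added 24 h after sarcoma cell lines were seeded in 384-well plates at densities targeting 80–90% confluence. Plates then sat 72 h at 37 °C, 5% CO2, with 0.1% DMSO vehicle and a 5 µM positive control. Relative viability came from ATPLite as percent growth, averaged over up to triplicate wells, and was rescaled with 1 as full and 0 as none.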
Structure (SMILES),relative viability (0.00017 µM),relative viability (0.00051 µM),relative viability (0.00152 µM),relative viability (0.00457 µM),relative viability (0.01372 µM),relative viability (0.04115 µM),relative viability (0.1235 µM),relative viability (0.3704 µM),relative viability (1.111 µM),relative viability (3.333 µM),relative viability (10 µM)
O=C(Nc1cnn2ccc(N3CCC[C@@H]3c3cc(F)ccc3F)nc12)N1CC[C@H](O)C1 [Larotrectinib],1.1 ± 0.025,1.09 ± 0.013,1.08 ± 0.016,1.09 ± 0.024,1.1 ± 0.016,1.06 ± 0.03,1.05 ± 0.053,1.08 ± 0.021,1.05 ± 0.027,1.02 ± 0.014,1.01 ± 0.038
C[C@@H]1COCCN1c1cc(-c2ccnn2C)c2ccnc(-c3ccn[nH]3)c2n1,1.07 ± 0.036,1.07 ± 0.012,1.07 ± 0.025,1.06 ± 0.029,1.06 ± 0.02,1.09 ± 0.026,1 ± 0.037,0.898 ± 0.025,0.538 ± 0.042,0.377 ± 0.0063,0.281 ± 0.026
CC(C)N1CCN(Cc2cnc(-c3cc(-c4cccc5[nH]ccc45)cc4[nH]ncc34)o2)CC1 [Nemiralisib],1.01 ± 0.024,1.02 ± 0.024,1.02 ± 0.029,1.01 ± 0.03,1.01 ± 0.026,1.02 ± 0.013,1.02 ± 0.021,1.03 ± 0.018,1.04 ± 0.038,1.03 ± 0.038,1.01 ± 0.034
COc1cccc2c1C(=O)c1c(O)c3c(c(O)c1C2=O)C[C@@](O)(C(=O)CO)C[C@@H]3O[C@H]1C[C@H](N)[C@H](O)[C@H](C)O1 [Doxorubicin Hydrochloride],1.09 ± 0.024,1.08 ± 0.04,1.07 ± 0.042,1.07 ± 0.0061,1.02 ± 0.062,1.04 ± 0.033,0.814 ± 0.038,0.475 ± 0.029,0.266 ± 0.014,0.0899 ± 0.0038,0.058 ± 0.0052
Nc1cc(C(F)(F)F)c(-c2cc(N3CCOCC3)nc(N3CCOCC3)n2)cn1 [Buparlisib],1.067 ± 0.01,1.03 ± 0.024,1.07 ± 0.038,1.06 ± 0.012,1.07 ± 0.033,1.05 ± 0.013,1.07 ± 0.022,1.07 ± 0.048,0.944 ± 0.053,0.426 ± 0.026,0.266 ± 0.013
Cc1cc(Nc2ncnc3ccc(NC4=NC(C)(C)CO4)cc23)ccc1Oc1ccn2ncnc2c1 [Tucatinib],1.09 ± 0.023,1.14 ± 0.021,1.13 ± 0.014,1.11 ± 0.029,1.09 ± 0.018,1.09 ± 0.025,1.12 ± 0.017,1.1 ± 0.017,1.12 ± 0.016,1.09 ± 0.02,1.11 ± 0.014
Cc1nc(-c2cn3c(n2)-c2ccc(-c4cnn(C(C)(C)C(N)=O)c4)cc2OCC3)n(C(C)C)n1 [Taselisib],1.04 ± 0.023,1.039 ± 0.003,1.03 ± 0.03,1.02 ± 0.018,1.042 ± 0.0077,1.01 ± 0.023,1.02 ± 0.02,1.03 ± 0.022,0.99 ± 0.035,0.948 ± 0.011,0.688 ± 0.0095
CN1CCC(COc2cnc(-c3cccc(Cn4nc(-c5cccc(C#N)c5)ccc4=O)c3)nc2)CC1 [Tepotinib],1.09 ± 0.054,1.11 ± 0.024,1.11 ± 0.012,1.09 ± 0.013,1.08 ± 0.012,1.08 ± 0.026,1.07 ± 0.015,1.03 ± 0.023,1.01 ± 0.023,0.995 ± 0.021,0.975 ± 0.014
CNC(=O)c1cc(Oc2ccc(NC(=O)Nc3ccc(Cl)c(C(F)(F)F)c3)c(F)c2)ccn1 [Regorafenib],1.09 ± 0.013,1.11 ± 0.012,1.12 ± 0.019,1.12 ± 0.013,1.112 ± 0.0027,1.1 ± 0.016,0.787 ± 0.57,1.07 ± 0.018,0.938 ± 0.055,0.569 ± 0.014,0.238 ± 0.083
CCCS(=O)(=O)Nc1ccc(F)c(C(=O)c2c[nH]c3ncc(-c4ccc(Cl)cc4)cc23)c1F [Vemurafenib],1.08 ± 0.029,1.074 ± 0.0078,1.08 ± 0.032,1.09 ± 0.017,1.09 ± 0.025,1.08 ± 0.023,1.09 ± 0.03,1.08 ± 0.03,1.07 ± 0.034,1.06 ± 0.018,0.601 ± 0.031
COc1c(OCCCN2CCOCC2)ccc2c1N=C(NC(=O)c1cnc(N)nc1)N1CCN=C21 [Copanlisib],1.1 ± 0.042,1.1 ± 0.029,1.11 ± 0.015,1.088 ± 0.0075,1.075 ± 0.01,1.04 ± 0.029,1.003 ± 0.01,0.907 ± 0.021,0.523 ± 0.014,0.198 ± 0.0088,0.146 ± 0.011
CC(=O)Nc1cccc(-n2c(=O)n(C3CC3)c(=O)c3c(Nc4ccc(I)cc4F)n(C)c(=O)c(C)c32)c1 [Trametinib],1.08 ± 0.012,1.09 ± 0.014,1.05 ± 0.019,0.975 ± 0.048,0.532 ± 0.055,0.312 ± 0.013,0.278 ± 0.0054,0.275 ± 0.011,0.256 ± 0.0076,0.25 ± 0.014,0.231 ± 0.02
COCc1c(-c2cc3cc(C)cc(OC)c3s2)c2c(N)ncnn2c1CN1CCNC(=O)C1 [Rogaratinib],1.09 ± 0.019,1.1 ± 0.014,1.08 ± 0.012,1.09 ± 0.0024,1.08 ± 0.032,1.06 ± 0.016,1.06 ± 0.018,1.06 ± 0.017,1.09 ± 0.023,1.04 ± 0.09,0.877 ± 0.031
COc1cc2/c(=N/c3ccc(Br)cc3F)nc[nH]c2cc1OCC1CCN(C)CC1 [Vandetanib],1.05 ± 0.032,1.036 ± 0.0034,1.04 ± 0.014,1.05 ± 0.018,1.05 ± 0.045,1.04 ± 0.029,1.05 ± 0.024,1.03 ± 0.015,1.02 ± 0.017,0.888 ± 0.044,0.551 ± 0.023
CNC(=O)c1ccc(-c2cnc3ncc(Cc4ccc5ncccc5c4)n3n2)cc1F [Capmatinib],1.1 ± 0.021,1.08 ± 0.016,1.098 ± 0.0065,1.06 ± 0.023,1.094 ± 0.0089,1.1 ± 0.032,1.09 ± 0.021,1.07 ± 0.035,1.09 ± 0.023,1.09 ± 0.021,1.09 ± 0.026
CCN1CCN(Cc2ccc(Nc3ncc(F)c(-c4cc(F)c5nc(C)n(C(C)C)c5c4)n3)nc2)CC1 [Abemaciclib],1.04 ± 0.032,1.02 ± 0.029,1.02 ± 0.018,1.03 ± 0.017,1.033 ± 0.0059,1.033 ± 0.01,1.04 ± 0.014,1.055 ± 0.0084,1.01 ± 0.048,0.753 ± 0.036,0.6015 ± 0.0059
C=CC(=O)N1CCC[C@@H](n2nc(-c3ccc(Oc4ccccc4)cc3)c3c(N)ncnc32)C1 [Ibrutinib],1.08 ± 0.025,1.086 ± 0.0071,1.08 ± 0.025,1.07 ± 0.013,1.05 ± 0.032,1.04 ± 0.014,1.05 ± 0.015,1.01 ± 0.045,1.034 ± 0.01,1.03 ± 0.043,0.995 ± 0.043
Cn1cnc2c(F)c(Nc3ccc(Br)cc3F)c(C(=O)NOCCO)cc21 [Binimetinib],1.06 ± 0.034,1.09 ± 0.015,1.081 ± 0.004,1.097 ± 0.0049,1.06 ± 0.045,0.943 ± 0.075,0.857 ± 0.012,0.802 ± 0.066,0.425 ± 0.015,0.291 ± 0.016,0.276 ± 0.012
CC1(C)CNc2cc(NC(=O)c3cccnc3NCc3ccncc3)ccc21 [Motesanib],1.03 ± 0.03,1.04 ± 0.021,1.03 ± 0.021,1.01 ± 0.028,1.02 ± 0.037,1.02 ± 0.023,1.03 ± 0.013,1.03 ± 0.021,1 ± 0.021,0.973 ± 0.024,0.882 ± 0.048
C[C@@H](c1ccc2nccn2c1)n1nnc2ncc(-c3cnn(C)c3)nc21 [Volitinib],1.07 ± 0.012,1.09 ± 0.018,1.09 ± 0.013,1.091 ± 0.0095,1.08 ± 0.015,1.08 ± 0.024,1.07 ± 0.015,1.06 ± 0.038,1.04 ± 0.035,1.02 ± 0.011,0.8916 ± 0.004
Cc1ccc(NC(=O)c2ccc(CN3CCN(C)CC3)cc2)cc1Nc1nc(-c2cccnc2)cs1 [Masitinib],1.05 ± 0.026,1.05 ± 0.035,1.089 ± 0.0014,1.083 ± 0.01,1.06 ± 0.028,1.09 ± 0.025,1.04 ± 0.052,1.01 ± 0.024,0.857 ± 0.018,0.612 ± 0.051,0.185 ± 0.0074
C=CC(=O)Nc1cccc(Oc2nc(Nc3ccc(N4CCN(C)CC4)cc3)nc3ccsc23)c1 [Olmutinib],1.058 ± 0.01,1.06 ± 0.011,1.068 ± 0.0024,1.067 ± 0.0084,1.07 ± 0.019,1.08 ± 0.026,1.054 ± 0.0094,1.074 ± 0.0078,1.06 ± 0.017,1.04 ± 0.029,0.926 ± 0.081
CC(C)(C)c1cc(NC(=O)Nc2ccc(-c3cn4c(n3)sc3cc(OCCN5CCOCC5)ccc34)cc2)no1 [Quizartinib],1.13 ± 0.012,1.1 ± 0.027,1.1 ± 0.019,1.08 ± 0.035,1.096 ± 0.0028,1.09 ± 0.013,1.069 ± 0.0099,1.07 ± 0.034,1.05 ± 0.025,0.998 ± 0.067,0.99 ± 0.032
CC(C)NC(=O)C1CCC(n2c(NC(=O)c3ccc(F)cc3)nc3ccc(CN4CCC(C(C)(C)O)CC4)cc32)CC1 (centres undefined) [Belizatinib],1.09 ± 0.025,1.095 ± 0.005,1.109 ± 0.0095,1.1 ± 0.02,1.104 ± 0.011,1.1 ± 0.021,1.1 ± 0.016,1.09 ± 0.028,1.09 ± 0.033,0.996 ± 0.059,0.654 ± 0.033
Cc1ccc(F)c(NC(=O)Nc2ccc(-c3cccc4[nH]nc(N)c34)cc2)c1 [Linifanib],1.1 ± 0.012,1.1 ± 0.016,1.09 ± 0.027,1.09 ± 0.024,1.05 ± 0.016,1.07 ± 0.015,1.052 ± 0.0063,1.05 ± 0.039,1.03 ± 0.037,0.968 ± 0.019,1.01 ± 0.059
Cc1nc(NC(=O)N2CCC[C@H]2C(N)=O)sc1-c1ccnc(C(C)(C)C(F)(F)F)c1 [Alpelisib],1.07 ± 0.031,1.073 ± 0.0087,1.06 ± 0.024,1.05 ± 0.021,1.03 ± 0.028,1.02 ± 0.018,1.02 ± 0.067,1.04 ± 0.014,0.992 ± 0.053,0.9227 ± 0.0047,0.828 ± 0.049
C[C@]1(O)C[C@@H](c2nc(-c3ccc4ccc(-c5ccccc5)nc4c3)c3c(N)nccn32)C1 [Linsitinib],1.11 ± 0.025,1.09 ± 0.011,1.07 ± 0.025,1.08 ± 0.011,1.08 ± 0.026,1.08 ± 0.012,1.08 ± 0.029,1.07 ± 0.05,1.06 ± 0.064,1.02 ± 0.027,0.8696 ± 0.0082
C=CC(=O)N1CCC([C@@H]2CCNc3c(C(N)=O)c(-c4ccc(Oc5ccccc5)cc4)nn32)CC1 [Zanubrutinib],1.01 ± 0.015,1.03 ± 0.024,1.03 ± 0.032,1.01 ± 0.015,1.041 ± 0.0094,1.05 ± 0.018,1.01 ± 0.013,1.04 ± 0.015,1.02 ± 0.023,1.01 ± 0.029,1.05 ± 0.03
CCc1cc2c(cc1N1CCC(N3CCOCC3)CC1)C(C)(C)c1[nH]c3cc(C#N)ccc3c1C2=O [Alectinib],1.07 ± 0.032,1.09 ± 0.031,1.082 ± 0.0076,1.08 ± 0.011,1.08 ± 0.013,1.089 ± 0.0044,1.09 ± 0.021,1.074 ± 0.0034,1.06 ± 0.026,1.05 ± 0.01,1.04 ± 0.044
